target: T1, PI3Kγ (Homo sapiens, UniProt P48736); assay: PI3Kγ in vitro kinase assay (32P-ATP, PIP2 lipid micelles, filter plate); type: biochemical; conditions: purified recombinant p101/p110γ protein with G protein β1/γ2 subunits; 20 μM ATP; 25 μM PIP2; 20 minutes at room temperature
T1 construct: HA; made in house; host or cells: Spodoptera frugiperda (Sf9) cells, baculovirus coinfection
Protocol: Spodtera frugiperda cells, grown in ESF921 media, were coinfected with baculovirus expressing a glu-tagged p101 and baculovirus expressing an HA-tagged p110γ, at a 3:1 ratio of p101 baculovirus to p110γ baculovirus. Sf9 cells were grown to 1×10^7 total cells/mL in 10 L bioreactors and harvested 48-72 hours post infection. Samples of infected cells were then tested for expression of p101/p110γ PI3 kinase by immunoprecipitation and Western Blot analysis methods (see below). To purify PI3Kγ, 4 volumes of room temperature hypotonic lysis buffer (1 mM MgCl2, 1 mM DTT, 5 mM EGTA, 1 mM Pefabloc, 0.5 μM aprotinin, 5 μM leupeptin, 2 μM pepstatin, 5 μM E64, pH 8) per gram of cell paste, was poured onto frozen cell pellets with stirring, then lysed in a nitrogen “bomb” at 400 psi (599HC […], Parr Instrument Co, Moline, Ill.). NaCl was added to 150 mM, and sodium cholate was added to 1% and mixed for another 45 minutes. The lysates were clarified by centrifugation for 25 minutes at 14,000 rpm. The lysates were then loaded over anti-glu-linked Protein-G Sepaharose beads (Covance Research Products, Richmond, Calif.) using 20 mL resin/50 g cell paste. The column was washed with 15 volumes of wash buffer (1 mM DTT, 0.2 mM EGTA, 1 mM Pefabloc, 0.5 μM aprotinin, 5 μM leupeptin, 2 μM pepstatin, 5 μM E64, 150 mM NaCl, 1% sodium cholate, pH 8). PI3Kγ was eluted with 6 column volumes of wash buffer that contain 100 μg/mL of a peptide that competes for binding of the glu tag. The column fractions with the eluted protein (determined by taking OD280 readings) were collected and dialyzed in 0.2 mM EGTA, 1 mM DTT, 1 mM Pefabloc, 5 μM leupeptin, 0.5% sodium cholate, 150 mM NaCl, and 50% glycerol, pH 8. The fractions were stored at -80° C. until further use. Spodtera frugiperda cells were coinfected with baculovirus expressing a glu-tagged G protein β1 and baculovirus expressing a […], at a 1:1 ratio of glu-tagged G protein β1 baculovirus to G protein β2 baculovirus. Sf9 cells are grown in 10 L bioreactors and harvested 48-72 hours post infection. Samples of infected cells were tested for G protein β1/β2 expression by Western Blot analysis, as described below. Cell lysates were homogenized and loaded onto a column of glu-tagged beads as in Biological Example 1 and competed off the column with a glu peptide and processed as described in Biological Example 1. The inhibitory properties of the compounds in Table 1 were assayed in an in vitro PI3K assay. In a 96-well polypropylene plate, each well was spotted with […] of 50 times the desired final concentration of compound in DMSO. Purified recombinant p101/p110γ protein (0.03 μg; 2.7 nM) and G protein β1/γ2 subunits (0.09 μg; 57.7 nM) for each reaction was combined in the assay buffer (30 mM HEPES, 100 mM NaCl, 1 mM EGTA, and 1 mM DTT). ATP and [γ-^32P-ATP] (0.09 μCi) were added to this mixture so that the final ATP concentration in the reaction was 20 μM. Lipid micelles were formed by sonicating phosphatidylinositol4,5-diphosphate (PIP2), phosphatidylethanolamine (PE), and Na-cholate in the assay buffer for 10 minutes, adding MgCl2 and incubating on ice for 20 minutes, for final concentrations of 25 μM PIP2, 300 μM PE, 0.02% Na-cholate, and 10 mM MgCl2 in the reaction. The reactions were started by adding equal volumes lipid and enzyme mixture in a total volume of 50 μL, allowed to run for 20 minutes at room temperature, and stopped with 100 μL 75 mM H3PO4. The lipid product was transferred to a glass fiber filter plate and washed with 75 mM H3PO4 several times. The presence of radioactive lipid product (PIP3) was measured by adding Wallac Optiphase mix to each well and counting in a Wallac 1450 Trilux plate reader (PerkinElmer Life Sciences Inc., Boston, Mass. 02118). The IC50 for each compound tested is reported in μM in Table 1: […]

T1 sequence (P48736 whole entry, species assumed): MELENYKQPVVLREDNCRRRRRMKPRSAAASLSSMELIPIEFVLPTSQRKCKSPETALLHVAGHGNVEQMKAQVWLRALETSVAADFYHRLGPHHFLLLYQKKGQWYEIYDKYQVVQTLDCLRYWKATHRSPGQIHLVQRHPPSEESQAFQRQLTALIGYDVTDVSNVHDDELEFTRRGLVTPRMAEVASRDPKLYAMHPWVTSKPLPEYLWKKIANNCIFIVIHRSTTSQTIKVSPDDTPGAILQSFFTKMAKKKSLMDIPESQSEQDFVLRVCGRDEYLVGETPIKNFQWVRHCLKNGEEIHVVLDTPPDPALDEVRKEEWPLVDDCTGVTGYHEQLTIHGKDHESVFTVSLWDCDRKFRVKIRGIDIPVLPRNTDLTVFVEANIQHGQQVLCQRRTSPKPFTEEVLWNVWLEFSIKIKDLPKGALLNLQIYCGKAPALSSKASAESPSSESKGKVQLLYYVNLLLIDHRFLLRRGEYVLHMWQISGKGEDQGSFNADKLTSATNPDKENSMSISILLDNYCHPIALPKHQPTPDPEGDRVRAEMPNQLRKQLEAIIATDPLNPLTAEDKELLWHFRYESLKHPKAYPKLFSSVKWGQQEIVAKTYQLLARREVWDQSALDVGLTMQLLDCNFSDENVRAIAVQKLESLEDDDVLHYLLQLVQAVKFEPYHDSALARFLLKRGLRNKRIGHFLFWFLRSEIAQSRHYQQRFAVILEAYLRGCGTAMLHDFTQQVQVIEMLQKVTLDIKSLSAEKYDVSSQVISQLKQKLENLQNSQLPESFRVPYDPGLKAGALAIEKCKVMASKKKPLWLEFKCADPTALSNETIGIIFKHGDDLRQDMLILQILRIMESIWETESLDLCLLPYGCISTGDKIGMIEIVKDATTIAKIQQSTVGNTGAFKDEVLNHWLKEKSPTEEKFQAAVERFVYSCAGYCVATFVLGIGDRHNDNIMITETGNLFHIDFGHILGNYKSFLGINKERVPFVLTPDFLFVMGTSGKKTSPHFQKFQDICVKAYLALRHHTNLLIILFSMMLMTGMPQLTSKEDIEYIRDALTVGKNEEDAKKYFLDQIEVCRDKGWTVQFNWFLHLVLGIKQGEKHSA
T1 sequence (Q8WYR1 whole entry partner, species assumed): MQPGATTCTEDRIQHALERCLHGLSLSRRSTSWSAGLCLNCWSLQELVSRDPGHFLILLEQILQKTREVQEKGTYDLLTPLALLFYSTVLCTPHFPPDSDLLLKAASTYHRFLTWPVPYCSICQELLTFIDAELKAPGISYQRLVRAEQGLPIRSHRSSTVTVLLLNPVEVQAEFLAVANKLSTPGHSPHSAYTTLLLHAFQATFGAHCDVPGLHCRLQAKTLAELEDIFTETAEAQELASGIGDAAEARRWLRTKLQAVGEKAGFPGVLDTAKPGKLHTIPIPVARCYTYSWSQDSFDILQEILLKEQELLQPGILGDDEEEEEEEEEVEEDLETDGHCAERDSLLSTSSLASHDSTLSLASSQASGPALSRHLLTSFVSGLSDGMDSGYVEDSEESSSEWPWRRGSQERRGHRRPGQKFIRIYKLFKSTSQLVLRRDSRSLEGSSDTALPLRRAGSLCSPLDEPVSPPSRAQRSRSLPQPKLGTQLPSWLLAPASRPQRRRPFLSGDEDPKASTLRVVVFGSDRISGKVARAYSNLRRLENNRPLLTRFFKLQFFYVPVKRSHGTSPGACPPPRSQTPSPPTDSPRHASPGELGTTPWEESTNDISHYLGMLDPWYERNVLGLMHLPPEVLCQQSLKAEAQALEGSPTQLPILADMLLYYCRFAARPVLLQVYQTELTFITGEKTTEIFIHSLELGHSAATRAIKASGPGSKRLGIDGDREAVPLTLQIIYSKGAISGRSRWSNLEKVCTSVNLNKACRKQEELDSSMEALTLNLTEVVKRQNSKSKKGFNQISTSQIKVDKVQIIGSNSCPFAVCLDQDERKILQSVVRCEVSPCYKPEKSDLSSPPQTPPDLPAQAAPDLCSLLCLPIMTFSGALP

Row | IC50 [µM] | SMILES
1 | 0.575 | COc1cc2c(Sc3ccc(CCC(=O)O)cc3)c(C(=O)Nc3nnn[nH]3)sc2cc1C [Example 57, 3-{4-[5-Methoxy-6-methyl-2-(1H-tetrazol-5-ylcarbamoyl)-benzo[b]thiophen-3-ylsulfanyl]-phenyl}-propionic acid]
2 | 1.34 | COc1cc2sc(C(=O)Nc3nnn[nH]3)c(Sc3ccc(C(=O)O)cc3)c2cc1C [Example 58, 4-[6-Methoxy-5-methyl-2-(1H-tetrazol-5-ylcarbamoyl)-benzo[b]thiophen-3-ylsulfanyl]-benzoic acid]
3 | 1.32 | COc1cc2sc(C(=O)Nc3nnn[nH]3)c(Sc3ccc(CC(=O)O)cc3)c2cc1C [Example 59, {4-[6-Methoxy-5-methyl-2-(1H-tetrazol-5-ylcarbamoyl)-benzo[b]thiophen-3-ylsulfanyl]-phenyl}-acetic acid]
4 | 0.495 | COc1cc2sc(C(=O)Nc3nnn[nH]3)c(SCc3ccc(C(=O)O)cc3)c2cc1C [Example 60, 4-[6-Methoxy-5-methyl-2-(1H-tetrazol-5-ylcarbamoyl)-benzo[b]thiophen-3-ylsulfanylmethyl]-benzoic acid]
5 | 2.61 | COc1cc2sc(C(=O)Nc3nnn[nH]3)c(Sc3ccc(CC(=O)O)cc3)c2cc1OC [Example 61, {4-[5,6-Dimethoxy-2-(1H-tetrazol-5-ylcarbamoyl)-benzo[b]thiophen-3-ylsulfanyl]-phenyl}-acetic acid]
6 | 2.67 | COc1cc2sc(C(=O)Nc3nnn[nH]3)c(Sc3ccc(CCC(=O)O)cc3)c2cc1OC [Example 62, 3-{4-[5,6-Dimethoxy-2-(1H-tetrazol-5-ylcarbamoyl)-benzo[b]thiophen-3-ylsulfanyl]-phenyl}-propionic acid]
7 | 2.71 | CCOc1ccc2sc(C(=O)Nc3nnn[nH]3)c(Sc3ccc(CC(=O)O)cc3)c2c1 [Example 63, {4-[5-Ethoxy-2-(1H-tetrazol-5-ylcarbamoyl)-benzo[b]thiophen-3-ylsulfanyl]-phenyl}-acetic acid]
8 | 3.62 | CCOc1ccc2sc(C(=O)Nc3nnn[nH]3)c(Sc3ccc(CCC(=O)O)cc3)c2c1 [Example 64, 3-{4-[5-Ethoxy-2-(1H-tetrazol-5-ylcarbamoyl)-benzo[b]thiophen-3-ylsulfanyl]-phenyl}-propionic acid]
9 | 0.315 | COCc1cc2sc(C(=O)Nc3nnn[nH]3)c(Sc3ccccc3)c2cc1OC [Example 65, 5-Methoxy-6-methoxymethyl-3-phenylsulfanyl-benzo[b]thiophene-2-carboxylic acid(1H-tetrazol-5-yl)-amide]
10 | 1.17 | COc1cc2sc(C(=O)Nc3nn[nH]n3)c(SCc3ccc(C#N)cc3)c2cc1OC [Example 66, 3-(4-Cyano-benzylsulfanyl)-5,6-dimethoxy-benzo[b]thiophene-2-carboxylic acid(2H-tetrazol-5-yl)-amide]

From patent US20040248953A1, “3-Arylsulfanyl and 3-heteroarylsulfanyl substituted benzo[b]thiophenes as therapeutic agents” (priority 2003, published 2004)
